pIC50: −log10 of the molar value.
Key:
PD-1/PD-L1 = PD-1/PD-L1 (Homo sapiens (Human), UniProt Q9NZQ7); assay: PD-1/PD-L1 binding assay (Alphascreen)
Experimental: Binding assays were conducted in a low volume white 384-well polystyrene plate in a final volume of 20 μL. Compounds to be analyzed were first serially diluted in DMSO and added to the plate wells before the addition of other reaction components. The final concentration of DMSO in the assay was 1%. The assay was carried out at 25° C. in the PBS buffer (pH 7.4) with 0.05% Tween-20 and 0.1% BSA. Recombinant human PD-L1 protein (19-238) with a His-tag at the C-terminus was purchased from AcroBiosystems (PD1-H5229). Recombinant human PD-1 protein (25-167) with Fc tag at the C-terminus was also from AcroBiosystems (PD1-H5257). PD-L1 and PD-1 proteins were diluted in the assay buffer (final concentration—0.67 and 0.20 nM respectively) and 10 μL was added to the plate well. Plates were centrifuged and proteins were preincubated with compounds for 40 minutes. The incubation was followed by the addition of 10 μL of assay buffer supplemented with Alphascreen Ni chelate donor beads (PerkinElmer—AS101D) and Protein A Acceptor beads (PerkinElmer—6760137) at final concentration 2.5 μg/mL under reduced light. After plate sealing, the plate was incubated in the dark at room temperature for 120 minutes before reading on a PHERAstar FS plate reader (BMG Labtech). IC50 determination was performed by fitting the curve of percent control activity versus the log of the compound concentration using the GraphPad Prism 5.0 software.

PD-L1 [1] = target: T1, PD-L1 (Homo sapiens (Human), UniProt Q9NZQ7); assay: Indirect PD-L1 internalization assay using MDA-MB231 cells; format: cell-based; settings: 16 hrs
Experimental: For the indirect analysis, cell surface PD-L1 was detected with fluorescently labeled anti-PD-L1 (CD274) antibodies. CHO-PD-L1 cells were seeded at 2×10^5 cells per well of a 6-well tissue culture plate in 2 ml of F-12 medium supplemented with 10% FBS, 200 μg/ml Hydromycin and 250 μg/ml Geneticin and allowed to attach for 24 hours. After 24 hours, test compounds were added to a final concentration of 1 uM from DMSO stocks, and an equal volume of DMSO was added to control wells. Cells were incubated in the presence of a compound for 16 hours at 37° C., 5% CO2. Prior to analysis, the cells were washed twice with 1 mL of Ca, Mg free PBS and detached with 1 mL of lift buffer (10 mM Tris, 140 mM NaCl, 1 mM EDTA). The collected cells were stained with PE-conjugated mouse anti-human CD274 antibody according to manufacturer instructions: BD Pharmigen #557924 Clone MIH1 (20 μL of Ab per 100 uL of BSA based staining buffer) or eBioscience #12-5983 Clone MIH1 (2 μL per 100 ul of BSA based staining buffer). Cells were incubated at room temperature for 20 minutes, protected from light, washed twice with Ca, Mg free PBS and resuspended in 400 μL of PBS. Antibody binding was detected by flow cytometry using an Accuri C6 instrument. Isotype control antibody-stained cells were used as a negative control. To test that lack of PD-L1 cell surface staining was not due to inhibition of detection antibody binding by the test article, an acid-wash procedure was used. After 16 hours of incubation in the presence of a compound or anti-PD-L1 antibody, the remaining, non-internalized a compound or antibody was stripped from the cell surface using freshly prepared, ice-cold acid stripping buffer (DMEM/0.2% BSA, pH 3.5). Cells were washed in this manner three times for 5 minutes each on a shaking platform. The stripped cells were then washed with ice-cold PBS three times for 5 minutes each with gentle shaking, harvested with lift buffer and stained with PE-mouse anti human CD274 antibodies as described.
For the indirect method of assessing PD-L1 internalization using the MDA-MB231 breast cancer cell line, the procedure for the assays was the same as described for the CHO-PD-L1 cells with the following changes. MDA-MB231 were seeded at 2×10^5 cells per well of a 6-well tissue culture plate in 2 ml of RPMI1640 medium supplemented with 10% FBS. After compound treatment for 16 hrs, the cells were treated with the stripping buffer (DMEM/0.2% BSA, pH 3.5) prior to staining with the anti-CD274 antibodies as described.

PD-L1 [2] = target: T1, PD-L1; assay: Indirect whole blood PD-L1 internalization assay; format: cell-based; settings: interferon γ, 18 hours, CD14+ gated
Experimental: To determine PD-L1 internalization in human whole blood, normal human blood (Biological Specialty Corp, Colmar. Pa.) was incubated in the presence or absence of a concentration range of test compounds and 1 ng/ml human interferon γ (R&D Systems Inc. Minn. Minn.) in a 96 well round bottom plate (Corning, Corning, N.Y.) for 18 hours at 37° C. Blood was then transferred into 96 well “2 ml Assay Block” (Corning, Corning N.Y.) and stained with PD-L1 (MIH1, eBioscience; or BD Biosciences San Jose, Calif.), CD14 (Life Technologies, Carlsbad, Calif.) for 30 minutes in the dark at room temperature. Whole Blood/red cells were lysed/fixed (lysis buffer BD Biosciences) for 5 minutes at 37° C. in dark and then centrifuged at 1600 RPM for 5 minutes and cells were transferred into 96 well round bottom plates (Corning). Cells were gated on CD14+ (BD Biosciences) and PD-L1 expression determined by mean fluorescence intensity (MFI) (BD LSRFortessa™ X-20). IC50 determination was performed by fitting the curve of compound percent inhibition versus the log of the compound concentration using the GraphPad Prism 7.0 software.

T1 sequence (Q9NZQ7 19-290): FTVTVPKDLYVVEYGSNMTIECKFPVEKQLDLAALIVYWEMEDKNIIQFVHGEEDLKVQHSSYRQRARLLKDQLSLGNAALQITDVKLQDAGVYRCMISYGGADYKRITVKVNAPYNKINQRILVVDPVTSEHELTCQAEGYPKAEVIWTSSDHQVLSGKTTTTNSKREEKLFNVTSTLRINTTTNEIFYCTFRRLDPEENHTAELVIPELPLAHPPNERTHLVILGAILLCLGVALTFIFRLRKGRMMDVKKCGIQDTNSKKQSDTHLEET
Sequence of PD-1/PD-L1 (Q9NZQ7 19-238): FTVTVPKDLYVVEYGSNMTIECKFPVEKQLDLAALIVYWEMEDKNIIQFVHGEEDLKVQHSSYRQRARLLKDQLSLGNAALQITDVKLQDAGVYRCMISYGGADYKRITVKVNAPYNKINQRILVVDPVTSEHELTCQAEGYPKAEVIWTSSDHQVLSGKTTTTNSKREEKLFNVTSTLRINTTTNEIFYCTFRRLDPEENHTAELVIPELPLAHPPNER

| Structure (SMILES) | IC50 (PD-1/PD-L1) | pIC50 (PD-L1 [1]) | pIC50 (PD-L1 [2]) |
| --- | --- | --- | --- |
| Cc1c(NC(=O)c2nc3c(n2C)CCN(C[C@H](C)O)C3)cccc1-c1cccc(NC(=O)c2nc3c(n2C)CCN(C)C3)c1Cl [Example P8] | 0.1 to 1 nM | > 8.00 | > 7.00 |
| Cc1c(NC(=O)c2nc3c(n2C)CCN(C[C@@H](C)O)C3)cccc1-c1cccc(NC(=O)c2nc3c(n2C)CCN(C)C3)c1Cl [Example P10] | 0.1 to 1 nM | > 8.00 | > 7.00 |
| Cc1c(-c2nc3cc(CN4CC[C@@H](C(=O)O)C4)cc(C#N)c3o2)cccc1-c1cccc(-c2nc3c(s2)CNCC3)c1C [Example P12] | 0.1 to 1 nM | 7.00 to 8.00 | 6.00 to 7.00 |
| Cc1c(Nc2nccc3cc(CN4CC[C@@H](O)C4)cnc23)cccc1-c1cccc(-c2nc3cc(CC4CC[C@@H](C(=O)O)C4)cc(C#N)c3o2)c1C (stereo partly drawn) [Example P14] | 0.1 to 1 nM | > 8.00 | > 7.00 |
| Cc1c(-c2nc3cc(CN4CC[C@@](C)(C(=O)O)C4)cc(C#N)c3o2)cccc1-c1cccc(Nc2nccc3cc(CN4CC[C@H](O)C4)cnc23)c1Cl [Example P16] | 0.1 to 1 nM | 7.00 to 8.00 | 6.00 to 7.00 |
| Cc1c(Nc2nccc3cc(CN4CC[C@@H](O)C4)cnc23)cccc1-c1cccc(-c2nc3c(Cl)cc(CN4CC[C@@H](C(=O)O)C4)cn3n2)c1C [Example P17] | 0.1 to 1 nM | 6.30 to 7.00 | 6.00 to 7.00 |
| Cc1c(-c2nc3cc(CN4CC[C@@H](C(=O)O)C4)cc(C#N)c3o2)cccc1-c1cccc(-n2cc3c(n2)CN(C(C)C)CC3)c1Cl [Example P19] | 0.1 to 1 nM | < 6.30 | 6.00 to 7.00 |
| Cc1c(Nc2nccc3cc(CN4CC[C@@H](O)C4)cnc23)cccc1-c1cccc(-c2nc3cc(CNCC(C)(C)C(=O)O)cc(C#N)c3o2)c1C [Example P21] | 0.1 to 1 nM | 7.00 to 8.00 | 6.00 to 7.00 |
| Cc1c(Nc2nccc3cc(CN4CC[C@H](C(=O)O)C4)cnc23)cccc1-c1nccc(Nc2nccc3cc(CN4CC[C@@H](O)C4)cnc23)c1C [Example P23] | 0.1 to 1 nM | 7.00 to 8.00 | 6.00 to 7.00 |
| Cc1c(Nc2nccc3cc(CN4CC[C@@H](O)C4)cnc23)cccc1-c1cccc(-c2nc3cc(CN4CC(C(=O)O)C4)cc(Cl)c3o2)c1C [Example P24] | 0.1 to 1 nM | 7.00 to 8.00 | 6.00 to 7.00 |
| Cc1c(-c2nc3c(Cl)cc(CN4CC[C@@H](O)C4)cn3n2)cccc1-c1cccc(-c2nc3cc(CN4CC[C@@H](C(=O)O)C4)cc(C#N)c3o2)c1C [Example P25] | 0.1 to 1 nM | 7.00 to 8.00 | 5.30 to 6.00 |
| Cc1c(-c2nc3c(C#N)cc(CN4CC[C@@H](O)C4)cn3n2)cccc1-c1cccc(-c2nc3cc(CN4CC[C@@H](C(=O)O)C4)cc(C#N)c3o2)c1C [Example P26] | 0.1 to 1 nM | 7.00 to 8.00 | 6.00 to 7.00 |
